The record followed here is patent US11565003B2, “Mechanical opening of lipid bilayers by molecular nanomachines” (William Marsh Rice University, priority 2016, dated 2023).

Series [1] deals with PC-3 cells. As to the kind of experiment: UV-activated nanomechanical necrosis, live cell confocal microscopy, PC-3. It counts as cell-based, human. As to conditions: for Time of Full Necrosis / Time of Initial Necrosis / % acceleration for full necrosis: 355 nm UV; for % acceleration for full necrosis: versus UV upon blank cells.
The test system of a further series is CHO cells. As to the kind of experiment: UV-activated nanomechanical necrosis, live cell confocal microscopy, CHO. It counts as cell-based, Chinese hamster. As to conditions: 355 nm UV; for % acceleration for full necrosis: versus UV upon blank cells. On the procedure:
Following the synthetic bilipid vesicle experiments, nanomechanical action upon live cells was studied using confocal microscopy aided by a super-resolution technique called Phase Modulation Nanoscopy. Applicants used two experimental methods. In the first method (Method A), the molecular motors were loaded into the cell media and the imaging was initiated within 5 minutes to 24 hours. In the second method, (Method B), the molecular motors were loaded into the cell media, incubated for 30 minutes to 24 hours, and then washed three times with fresh molecular motor-free media before imaging. […]
Microscopy cells were seeded in untreated iBibi 100 μL live cell channels and allowed to grow to 40% to 60% confluence, at 37° C. in 5% CO2. At this stage, the medium was replaced and cells were treated with the studied nanomachines and co-stains as appropriate, with 0.1% DMSO (as detailed above) present in the final imaging medium. For live cell imaging, DMEM/F12 media (10% FBS) lacking phenol red was used from this point onwards. Following incubation, where Method B was used, the channels were washed with live cell imaging media and imaged using a purpose build incubator housing the microscope maintaining 37° C., 5% CO2 and 10% humidity.
All live cell imaging experiments used either NIH 3T3 mouse skin fibroblast cells, PC-3 cells, a grade 3 human prostate adenocarcinoma, or Chinese hamster ovary cells (CHO). These are all well-studied cell lines with discrete morphological compositions. Each molecular machine was used as a stock solution at 0.10 to 1.00 μM with total dimethyl sulfoxide (DMSO) concentrations not exceeding 0.1% in the final cell media in order to avoid unwanted cell membrane permeabilization, the DMSO being required for solubility of the organic nanomachines. All loading experiments are carried out in a light-suppressed manner and the possibility of induced or accelerated uptake due to interaction between the molecular motors and the applied co-stain has been eliminated using a series of individual and reversed loading experiments.
All experimental imaging parameters (i.e., laser beam size, confocal pinhole size, laser intensity, line scanning speed, scanning area (field of view, FOV), and line averaging sequences) were kept constant throughout the experiments. The accuracy and errors associated with the establishment of accelerated necrosis are determined based on one dual channel imaging sequence, which takes 15 seconds in total. This imaging sequence has been carefully established using untreated live cells.
Steady state fluorescence images were recorded using a PhMoNa enhanced Leica SP5 II LSCM equipped with a HCX PL APO 63×/1.40 NA LambdaBlue Oil immersion objective. As an initial control experiment to establish the UV-induced cell toxicity threshold, while mitigating voxel exposure and ensuring sufficient laser dwell time, an imaging sequence has been established to monitor cell morphological and physiological changes as a function of time. All experiments used cell-line-determined culture medium containing 0.1% DMSO.
The applied 100 Hz detection sequence was based on a bidirectional dual-channel continuous scanning method where a minimalistic non-damaging visible laser light (458 nm, 0.2 mW) is used in conjunction with the above detailed UV exposure. This is set as a 2 line/scan accumulation parallel acquisition sequence that is recorded as a function of time. Studied channels correspond to transmission images and UV-induced mitochondrial auto-fluorescence detected at 460 to 550 nm. Applicants further confirmed that the effectiveness of monitoring the UV-activated nanomechanical action on live cells using a conventional CW mercury-arc excitation source equipped with an epi-fluorescence setup consisting of a Zeiss Axiovert 200M inverted microscope, as discussed in FIGS. 18A-C. […]

Series [2] concerns PC-3 cells. Briefly: Two-photon near-infra red activation, PI dye entry, PC-3. It counts as cell-based, human. As to conditions: PC-3, 1 μM, PI 200 nM. On the procedure: Two-photon microscopy studies of NIH 3T3 cells were executed on a Nikon E600 upright confocal microscope coupled to a tuneable (710-950 nm Coherent MaiTai) multiphoton source operating at (20%) 240 mW power using a 166 lps scan speed and 128×128 pixel frame resolution for MP-illumination. Images (512×512 pixel, 166 lps) were recorded using a 543 nm (1 mW HeNe) laser combined with a 560 nm long-pass filter to record PI (200 nM) fluorescence and follow the onset of induced necrosis.
Two photon live cell microscopy studies were also executed on a Nikon E600 upright confocal microscope coupled to a tuneable (710-950 nm Coherent MaiTai) multiphoton source operating at (19.8%) 240 mW power at 720 nm using 166 lines/sec scan speed and 128×128 pixel frame resolution for MP-illumination. An oil immersion Nikon IR objective (×60/1.4 NA) was used. Images (512×512 pixel, 166 l/s) were recorded using a 543 nm (1 mW HeNe) laser combined with a 570 nm long-pass filter to record PI dyes (200 nM). Fluorescence was measured as 2 frame averaged images in order to follow the onset of induced necrosis. Necrosis times have been assigned to detectable PI signals in the nucleolus.

Setting [3] is: PC-3, Method B (washed three times).

Structures are written as SMILES. Starred links: 1 amine or outer side, 2 acyl side, 3 side chain; linkers in the order of their positions; H or OH if unused. Positions of bridges follow the written chain, without caps; N, C: chain ends. Residues, ends and D or L forms follow the SMILES beside them. Chains are numbered I, II in the order given. X2 = C[C@@H]1Cc2ccc3ccccc3c2C1=C1c2cc(C#CCCn3cc(C(=O)[*:1])nn3)ccc2Sc2ccc(C#CCCn3cc(C(=O)[*:2])nn3)cc21

Regarding `CC(C)[C@H](NC(=O)[C@H](CCCNC(=N)N)NC(=O)[C@@H](NC(=O)[C@H](CC(N)=O)NC(=O)[C@H](CO)NC(=O)c1cn(CCC#Cc2ccc3c(c2)C(=C2c4c(ccc5ccccc45)C[C@H]2C)c2cc(C#CCCn4cc(C(=O)N[C@@H](CO)C(=O)N[C@@H](CC(N)=O)C(=O)N[C@H](C(=O)N[C@@H](CCCNC(=N)N)C(=O)N[C@H](C(=O)N[C@@H](C)C(=O)N5CCC[C@H]5C(=O)O)C(C)C)[C@@H](C)O)nn4)ccc2S3)nn1)[C@@H](C)O)C(=O)N[C@@H](C)C(=O)N1CCC[C@H]1C(=O)O` [Compound 9] (I: SNTRVAP-OH / II: SNTRVAP-OH; linker I:N-II:N via X2), in the series with PC-3 cells [1] (NIH 3T3 and CHO as non-targeted controls), the “selectivity for targeted PC-3 cells over non-targeted control cells (in words)” value is “selectively target the PC-3 cell line over CHO cells”. In addition, the “Time of Full Necrosis” value in the series with PC-3 cells [1] (PC-3, Method A (no washing)) was determined as 360 s; with PC-3 cells [1] (setting [3]) it was 390 s; in the series on CHO cells (Method A (no washing)), 585 s; with CHO cells (Method B (washed three times)) it was 570 s. The “Time of Initial Necrosis” value is reported as 150 s in the series on PC-3 cells [1] (PC-3, Method A (no washing)); 180 s in the series with PC-3 cells [1] (setting [3]); 300 s with CHO cells (Method A (no washing)); 285 s with CHO cells (Method B (washed three times)). Besides, the “% acceleration for full necrosis” value is listed as 40% in the series on PC-3 cells [1] (PC-3, Method A); 35% in the series on PC-3 cells [1] (PC-3, Method B); 2.5% with CHO cells (Method A); 5% in the series with CHO cells (Method B). Moreover, in the series with PC-3 cells [1] (PC-3, incubated 30 minutes to 4 hours, washed three times, 24 hours rotor free media), the “accelerated necrosis upon UV-activation after washing and further 24 hours in rotor free media” value is on record as 25%. For the same compound, in the series with PC-3 cells [2], the “PI dye entry upon two-photon near-infra red illumination (in words)” value was “resulting in Propidium Iodide (PI) dyes entering”.
